According to patent publication US20240174594A1, “4-ALKENYL AND 4-ALKYNYL PHENETHYLAMINE DERIVATIVES AND RELATED COMPOUNDS WITH MODIFIED DOM-LIKE ACTION” (priority 2022, published 2024):

What was measured:
[1] = molecular target: T1, 5-HT transporter (SERT) (Homo sapiens, UniProt P31645); details: cited from earlier work
[2] = system: humans; details: cited from earlier work
[3] = molecular target: T1, 5-HT transporter (SERT); assay: interaction with the 5-HT transporter; details: data on file
[4] = molecular target: 5-HT2A receptor (Homo sapiens, UniProt P28223); details: cited from earlier work
Chain of 5-HT2A receptor (P28223 whole entry): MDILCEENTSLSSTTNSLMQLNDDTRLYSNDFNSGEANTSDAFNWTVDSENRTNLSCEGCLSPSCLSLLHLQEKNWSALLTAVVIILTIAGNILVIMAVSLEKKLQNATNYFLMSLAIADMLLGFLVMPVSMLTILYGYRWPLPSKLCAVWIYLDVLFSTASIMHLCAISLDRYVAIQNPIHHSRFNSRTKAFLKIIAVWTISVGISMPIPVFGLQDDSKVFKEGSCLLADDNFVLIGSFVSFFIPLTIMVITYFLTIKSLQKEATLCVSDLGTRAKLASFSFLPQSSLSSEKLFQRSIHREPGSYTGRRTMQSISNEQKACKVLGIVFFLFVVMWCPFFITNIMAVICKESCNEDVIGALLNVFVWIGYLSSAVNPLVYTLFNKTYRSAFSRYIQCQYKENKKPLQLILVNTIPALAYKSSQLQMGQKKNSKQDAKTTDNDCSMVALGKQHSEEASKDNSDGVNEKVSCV

[5] = molecular target: T2, 5-HT1A receptor (Homo sapiens, UniProt P08908); details: literature and data on file; cited from earlier work
T2 sequence (P08908 1-422): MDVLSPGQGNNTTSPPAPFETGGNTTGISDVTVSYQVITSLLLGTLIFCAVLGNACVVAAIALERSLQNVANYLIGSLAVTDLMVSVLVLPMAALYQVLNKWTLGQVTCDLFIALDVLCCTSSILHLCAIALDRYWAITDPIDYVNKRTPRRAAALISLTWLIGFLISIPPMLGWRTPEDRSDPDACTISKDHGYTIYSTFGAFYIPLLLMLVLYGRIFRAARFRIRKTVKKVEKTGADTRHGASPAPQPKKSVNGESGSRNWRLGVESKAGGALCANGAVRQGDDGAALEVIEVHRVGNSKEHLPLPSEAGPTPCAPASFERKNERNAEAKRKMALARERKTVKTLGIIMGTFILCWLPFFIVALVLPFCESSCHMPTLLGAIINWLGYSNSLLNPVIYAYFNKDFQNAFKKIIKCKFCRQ

[6] = molecular target: D2 receptors (Homo sapiens, UniProt P14416); details: literature and data on file; cited from earlier work
Chain of D2 receptors (P14416 whole entry): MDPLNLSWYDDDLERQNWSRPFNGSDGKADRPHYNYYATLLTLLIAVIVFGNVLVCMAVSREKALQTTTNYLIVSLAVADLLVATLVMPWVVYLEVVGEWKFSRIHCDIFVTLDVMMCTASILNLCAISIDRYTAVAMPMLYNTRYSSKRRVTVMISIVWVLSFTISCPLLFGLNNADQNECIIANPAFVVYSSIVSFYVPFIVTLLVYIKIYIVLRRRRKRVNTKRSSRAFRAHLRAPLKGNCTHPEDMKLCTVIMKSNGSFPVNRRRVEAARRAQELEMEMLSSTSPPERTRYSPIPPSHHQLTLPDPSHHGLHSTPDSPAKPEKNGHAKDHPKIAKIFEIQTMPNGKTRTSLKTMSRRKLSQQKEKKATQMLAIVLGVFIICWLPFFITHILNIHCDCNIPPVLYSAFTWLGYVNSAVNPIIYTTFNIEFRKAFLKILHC

T1 sequence (P31645 whole entry, species assumed): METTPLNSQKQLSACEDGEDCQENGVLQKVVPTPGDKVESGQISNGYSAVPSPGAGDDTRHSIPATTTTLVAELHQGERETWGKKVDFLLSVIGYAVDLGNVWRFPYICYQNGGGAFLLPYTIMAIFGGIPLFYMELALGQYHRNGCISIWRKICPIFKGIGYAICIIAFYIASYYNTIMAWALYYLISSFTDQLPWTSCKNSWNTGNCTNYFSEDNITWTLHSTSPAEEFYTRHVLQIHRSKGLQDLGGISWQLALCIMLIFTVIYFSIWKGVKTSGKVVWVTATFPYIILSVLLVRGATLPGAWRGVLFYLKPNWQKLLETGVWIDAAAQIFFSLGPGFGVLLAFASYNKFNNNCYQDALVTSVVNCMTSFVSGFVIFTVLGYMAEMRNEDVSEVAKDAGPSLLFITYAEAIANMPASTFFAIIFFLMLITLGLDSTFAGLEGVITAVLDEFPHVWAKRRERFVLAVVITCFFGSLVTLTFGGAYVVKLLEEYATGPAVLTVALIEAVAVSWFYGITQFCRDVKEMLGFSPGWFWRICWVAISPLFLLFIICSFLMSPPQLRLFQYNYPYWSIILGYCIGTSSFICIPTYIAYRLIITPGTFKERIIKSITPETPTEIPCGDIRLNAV

CN(C)CCc1c[nH]c2cccc(O)c12 [Psilocin]
action at the SERT [1]: inhibits

COc1cc(CCN)c(OC)cc1C [2C-D, 2,5-dimethoxy-4-methylphenethylamine]
duration of action / psychoactive effects [2]: 4 to 6 h | psychoactive dose in humans (full active doses / human potency) [2]: 20 to 60 mg

COc1cc(CC(C)N)c(OC)cc1C (centres unmarked) [DOM, 2,5-dimethoxy-4-methylamphetamine]
interaction with the SERT [3]: do not interact | duration of action / psychoactive effects [2]: 14 to 20 h | psychoactive dose in humans (full active doses / human potency) [2]: 3 to 10 mg | psychoactive dose, off of baseline [2]: 1 mg | time to first subjective effects [2]: 30 min | time to full effects (onset of action) [2]: up to 2 hours | 5-HT2A receptor affinity [4]: high affinities | 5-HT1A receptor affinity [5]: very low affinity | D2 receptor affinity [6]: no affinity

COc1cc(C)cc(OC)c1CC(C)N (centres unmarked) [ψ-DOM, 2,6-dimethoxy-4-methylamphetamine]
duration of action / psychoactive effects [2]: 6 to 8 h | psychoactive dose in humans (full active doses / human potency) [2]: 15 to 25 mg | dose relative to DOM ([2]; higher dose than DOM): 3- to 5 fold | 5-HT2A binding affinity in comparison to DOM [4]: approximately three-fold lower

COc1cc(CCN)cc(OC)c1OC [mescaline]
5-HT2A receptor affinity [4]: very weak | D2 receptor affinity [6]: no affinity

CCN(CC)C(=O)[C@@H]1C=C2c3cccc4[nH]cc(c34)C[C@H]2N(C)C1 [LSD, lysergic acid diethylamide]
duration of action / psychoactive effects [2]: 8 to 12 h

C#Cc1cc(OC)c(CCN)cc1OC.Cl [2C-YN, 2,5-Dimethoxy-4-ethynylphenethylamine hydrochloride]
duration of action / psychoactive effects [2]: 2 to 3 h
